The source of these data is ChEMBL document CHEMBL1142710, “3D-QSAR comparative molecular field analysis on opioid receptor antagonists: pooling data from different studies” (J Med Chem, 2005).

One test has as its target Mu-type opioid receptor (Rattus norvegicus, UniProt P33535). Description: Binding affinity against Opioid receptor mu 1 from rat brain membranes using [3H]DAMGO.
For test [1], the target named is Delta-type opioid receptor (Rattus norvegicus, UniProt P33533). Description: Binding affinity against Opioid receptor delta 1 from rat brain membranes using [3H]DADLE.
For test [2], the target named is Kappa-type opioid receptor (Cavia porcellus, UniProt P41144). As to the kind of experiment: Binding affinity against Opioid receptor kappa 1 from guinea pig brain membranes using [3H]U-69593.

Structures are written as SMILES. pKi: −log10 of the molar value.

Sequence of Mu-type opioid receptor (P33535 whole entry): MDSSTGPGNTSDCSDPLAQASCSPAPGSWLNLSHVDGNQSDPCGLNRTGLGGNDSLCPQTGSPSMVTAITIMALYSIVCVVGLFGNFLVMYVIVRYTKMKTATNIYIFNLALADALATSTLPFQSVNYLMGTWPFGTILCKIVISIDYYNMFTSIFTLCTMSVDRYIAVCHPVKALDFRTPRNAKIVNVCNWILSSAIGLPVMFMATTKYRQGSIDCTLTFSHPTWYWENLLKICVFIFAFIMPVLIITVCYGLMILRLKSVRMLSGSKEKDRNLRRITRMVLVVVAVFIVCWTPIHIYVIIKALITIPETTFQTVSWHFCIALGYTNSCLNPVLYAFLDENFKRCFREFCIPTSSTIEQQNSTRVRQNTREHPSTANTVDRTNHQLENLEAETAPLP
Sequence of Delta-type opioid receptor (P33533 whole entry): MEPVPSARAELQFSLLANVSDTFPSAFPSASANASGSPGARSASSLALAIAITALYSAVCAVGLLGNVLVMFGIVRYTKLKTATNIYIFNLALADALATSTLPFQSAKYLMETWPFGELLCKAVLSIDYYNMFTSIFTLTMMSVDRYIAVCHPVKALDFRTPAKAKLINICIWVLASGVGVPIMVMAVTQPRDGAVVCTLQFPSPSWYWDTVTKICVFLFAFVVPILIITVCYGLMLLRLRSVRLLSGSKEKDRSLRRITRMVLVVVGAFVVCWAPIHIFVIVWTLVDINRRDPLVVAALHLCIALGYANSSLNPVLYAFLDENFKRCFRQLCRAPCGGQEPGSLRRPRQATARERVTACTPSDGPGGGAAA
Sequence of Kappa-type opioid receptor (P41144 whole entry): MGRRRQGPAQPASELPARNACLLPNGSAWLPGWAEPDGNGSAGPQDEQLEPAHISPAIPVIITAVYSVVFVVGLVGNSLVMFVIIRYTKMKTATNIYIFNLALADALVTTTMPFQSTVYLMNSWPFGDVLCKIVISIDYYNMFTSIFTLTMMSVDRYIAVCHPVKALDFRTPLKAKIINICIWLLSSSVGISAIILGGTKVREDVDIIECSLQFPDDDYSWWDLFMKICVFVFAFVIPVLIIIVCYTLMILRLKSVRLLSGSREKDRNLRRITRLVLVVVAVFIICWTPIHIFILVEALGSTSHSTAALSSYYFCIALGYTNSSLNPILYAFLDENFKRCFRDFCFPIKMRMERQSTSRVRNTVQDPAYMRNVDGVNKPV

The pKi is −log10 of the Ki, conventionally taken in molar units. High values mean a small Ki, low ones a large Ki. Regarding `COc1ccc2c(c1O)[C@]13CCN(CC4CC4)C(C2)[C@@H]1CC1c2ccccc2NC1C3` (stereo partly specified), the pKi at Mu-type opioid receptor is 4.88; in test [1], 8.15; in test [2], 5.10.

On to `COc1ccc2c(c1O)[C@]13CCN(C)C(C2)[C@@H]1CC1c2ccccc2NC1C3` (stereo partly specified), for which the pKi on Mu-type opioid receptor was 5.55; in test [1] it was 7.03.

As to `CCN1CC[C@]23CC4Nc5ccccc5C4C[C@@]2(O)C1Cc1ccc(OC)c(O)c13` (stereo partly specified), the pKi on Mu-type opioid receptor is 6.10; in test [1] it was 6.16.

In turn, `C=C(C)CN1CCC23c4c5ccc(OC)c4O[C@H]2C(=O)/C(=C\c2ccccc2)C[C@@]3(O)C1C5` (stereo partly specified) had a pKi in test [1] of 5.47.

Regarding `C=C(C)CN1CCC23c4c5ccc(O)c4O[C@H]2c2ncc(-c4ccc(Cl)cc4)cc2C[C@@]3(O)C1C5` (stereo partly specified), the pKi was 7.80 in test [1] and 6.52 in test [2].

Consider `C=C(C)CN1CCC23c4c5ccc(OC)c4O[C@H]2c2ncc(-c4ccc(Cl)cc4)cc2C[C@@]3(O)C1C5` (stereo partly specified), for which the pKi in test [1] is 6.59; in test [2] it was 5.49.

As for `CCN1CC[C@]23CC4Nc5ccccc5C4C[C@H]2C1Cc1ccc(OC)c(O)c13` (stereo partly specified), the pKi is 5.87 at Mu-type opioid receptor, 6.29 in test [1] and 5.44 in test [2].

Turning to `COc1ccc2c(c1O)[C@]13CCN(C)C(C2)[C@]1(O)CC1c2ccccc2NC1C3` (stereo partly specified), the pKi is 5.55 at Mu-type opioid receptor and 6.66 in test [1].

In turn, `CCCCC1c2c([nH]c3ccccc23)[C@H]2Oc3c(OC)ccc4c3[C@@]23CCN(C)[C@H](C4)[C@H]13` (stereo partly specified) gave a pKi in test [1] of 6.43.

As for `CC(C)=CCN1CC[C@]23c4c5ccc(O)c4O[C@@H]2c2[nH]c4ccccc4c2C[C@@]3(O)[C@H]1C5`, the pKi at Mu-type opioid receptor is 5.55; in test [1], 7.60; in test [2] it was 5.49.

On to `CC(C)CCN1CC[C@]23c4c5ccc(O)c4O[C@@H]2c2[nH]c4ccccc4c2C[C@@]3(O)[C@H]1C5`, for which the figures for the pKi (at Mu-type opioid receptor; in test [1]; in test [2]) were 5.89, 8.42 and 6.17, respectively.

Take `CCCCCCCN1CC[C@]23c4c5ccc(O)c4O[C@@H]2c2[nH]c4ccccc4c2C[C@@]3(O)[C@H]1C5`: the figures for the pKi (at Mu-type opioid receptor; in test [1]) were 5.34 and 7.10, respectively.

In the case of `CCCCN1CC[C@]23c4c5ccc(O)c4O[C@@H]2c2[nH]c4ccccc4c2C[C@@]3(O)[C@H]1C5`, the pKi at Mu-type opioid receptor was 5.89; in test [1], 8.08; in test [2], 6.05.

Turning to `CCCCC1c2c([nH]c3ccccc23)[C@H]2Oc3c(O)ccc4c3[C@@]23CCN(C)[C@H](C4)[C@H]13` (stereo partly specified), the pKi on Mu-type opioid receptor is 5.96; in test [1], 7.66; in test [2] it was 6.14.

Regarding `CC(C)CN1CC[C@]23c4c5ccc(O)c4O[C@@H]2c2[nH]c4ccccc4c2C[C@@]3(O)[C@H]1C5`, the pKi on Mu-type opioid receptor is 5.59; in test [1] it was 8.42; in test [2] it was 6.19.

Regarding `CCCCCCN1CC[C@]23c4c5ccc(O)c4O[C@@H]2c2[nH]c4ccccc4c2C[C@@]3(O)[C@H]1C5`, the pKi was 5.34 at Mu-type opioid receptor, 7.59 in test [1] and 5.51 in test [2].

Consider `CCCN1CC[C@]23c4c5ccc(O)c4O[C@@H]2c2[nH]c4ccccc4c2C[C@@]3(O)[C@H]1C5`, for which the negative-log Ki (pKi) at Mu-type opioid receptor is 6.15; in test [1], 8.70; in test [2] it was 6.42.

As for `CN1CC[C@]23c4c5ccc(O)c4O[C@@H]2c2[nH]c4ccccc4c2C[C@H]3[C@H]1C5`, the pKi at Mu-type opioid receptor was 6.15; in test [1] it was 8.62.

Take `CC1c2c([nH]c3ccccc23)[C@H]2Oc3c(O)ccc4c3[C@@]23CCN(C)[C@H](C4)[C@H]13` (stereo partly specified): the pKi on Mu-type opioid receptor was 6.62; in test [1], 9.15; in test [2] it was 6.90.

Consider `C=C(C)CN1CC[C@]23c4c5ccc(OC)c4O[C@@H]2c2[nH]c4ccccc4c2C[C@@]3(O)[C@H]1C5`, for which, in test [1], the pKi was 6.30.

`COc1ccc2c3c1O[C@@H]1c4[nH]c5ccccc5c4C[C@H]4[C@@H](C2)N(C)CC[C@]314` showed a pKi in test [1] of 7.02.

Consider `C/C=C/CN1CC[C@]23c4c5ccc(O)c4O[C@@H]2c2[nH]c4ccccc4c2C[C@@]3(O)[C@H]1C5`, for which the pKi on Mu-type opioid receptor is 5.92; in test [1], 8.13; in test [2] it was 6.02.

On to `COc1ccc2c3c1O[C@@H]1c4[nH]c5ccccc5c4C(C)[C@H]4[C@@H](C2)N(C)CC[C@]314` (stereo partly specified), for which the pKi in test [1] is 7.57.

On to `C=C(C)CN1CC[C@]23c4c5ccc(O)c4O[C@@H]2c2[nH]c4ccccc4c2C(C)[C@H]3[C@H]1C5` (stereo partly specified), for which the pKi on Mu-type opioid receptor was 5.97; in test [1] it was 8.05; in test [2], 6.07.

On to `C/C=C/CN1CC[C@]23c4c5ccc(O)c4O[C@@H]2c2[nH]c4ccccc4c2C(C)[C@H]3[C@H]1C5` (stereo partly specified), for which the results for the pKi (on Mu-type opioid receptor; in test [1]; in test [2]) were 5.99, 8.64 and 6.92, respectively.

In the case of `CCCCCN1CC[C@]23c4c5ccc(O)c4O[C@@H]2c2[nH]c4ccccc4c2C[C@@]3(O)[C@H]1C5`, the negative-log Ki (pKi) is 5.55 at Mu-type opioid receptor, 7.80 in test [1] and 5.70 in test [2].

With `CC(C)N1CC[C@]23c4c5ccc(O)c4O[C@@H]2c2[nH]c4ccccc4c2C[C@@]3(O)[C@H]1C5`, the pKi in test [1] is 7.48; in test [2], 5.21.

In test [2], `CCO[C@@]12Cc3c([nH]c4ccccc34)[C@]3(C)Oc4c(O)ccc5c4[C@@]31CCN(C)[C@@H]2C5` showed a pKi of 6.54.

Turning to `O=C(Oc1ccc2c3c([nH]c2c1)[C@H]1Oc2c(O)ccc4c2[C@@]12CCN(CC1CC1)[C@H](C4)[C@]2(O)C3)c1ccccc1`, the results for the pKi (at Mu-type opioid receptor; in test [1]; in test [2]) were 6.17, 8.17 and 6.33, respectively.

Turning to `Oc1ccc2c3c1O[C@@H]1c4[nH]c5cccc(Oc6ccccc6)c5c4C[C@@]4(O)[C@@H](C2)N(CC2CC2)CC[C@]314`, the pKi on Mu-type opioid receptor is 5.84; in test [1], 7.17; in test [2] it was 5.88.

With `Oc1ccc2c3c1O[C@@H]1c4[nH]c5cccc(-c6ccccc6)c5c4C[C@@]4(O)[C@@H](C2)N(CC2CC2)CC[C@]314`, the pKi on Mu-type opioid receptor was 5.82; in test [1], 7.28; in test [2] it was 5.53.

Compound `Oc1cccc(-c2ccc3c4c2O[C@@H]2c5[nH]c6ccccc6c5C[C@@]5(O)[C@@H](C3)N(CC3CC3)CC[C@]425)c1` had a pKi in test [1] of 5.79.

Take `O=C(Oc1cccc2c3c([nH]c12)[C@H]1Oc2c(O)ccc4c2[C@@]12CCN(CC1CC1)[C@H](C4)[C@]2(O)C3)c1ccccc1`: the pKi was 6.80 on Mu-type opioid receptor, 8.51 in test [1] and 6.59 in test [2].

For `O[C@@]12Cc3c([nH]c4ccccc34)[C@H]3Oc4c(-c5ccccc5)ccc5c4[C@@]31CCN(CC1CC1)[C@@H]2C5`, in test [1], the pKi is 4.98.

With `Oc1ccc2c3c1O[C@@H]1c4[nH]c5ccc(-c6ccccc6)cc5c4C[C@@]4(O)[C@@H](C2)N(CC2CC2)CC[C@]314`, the pKi at Mu-type opioid receptor is 6.78; in test [1] it was 7.80; in test [2], 6.45.

As to `Cc1ccc2c3c1O[C@@H]1c4[nH]c5ccccc5c4C[C@@]4(O)[C@@H](C2)N(CC2CC2)CC[C@]314`, the pKi in test [1] is 7.15.

Regarding `Oc1ccc2c3c1O[C@@H]1c4[nH]c5ccc(/C=C/c6ccccn6)cc5c4C[C@@]4(O)[C@@H](C2)N(CC2CC2)CC[C@]314`, the pKi is 7.12 at Mu-type opioid receptor, 8.43 in test [1] and 7.70 in test [2].

`C=Cc1ccc2c3c1O[C@@H]1c4[nH]c5ccccc5c4C[C@@]4(O)[C@@H](C2)N(CC2CC2)CC[C@]314`: the pKi is 7.21 in test [1] and 4.75 in test [2].

`O[C@@]12Cc3c([nH]c4ccccc34)[C@H]3Oc4c(-c5ccco5)ccc5c4[C@@]31CCN(CC1CC1)[C@@H]2C5`: the pKi in test [1] was 6.02.

Regarding `Oc1ccc2c3c1O[C@@H]1c4[nH]c5c(-c6ccccc6)cccc5c4C[C@@]4(O)[C@@H](C2)N(CC2CC2)CC[C@]314`, the pKi is 6.91 on Mu-type opioid receptor, 8.68 in test [1] and 6.51 in test [2].

Regarding `O=C(Oc1ccc2[nH]c3c(c2c1)C[C@@]1(O)[C@H]2Cc4ccc(O)c5c4[C@@]1(CCN2CC1CC1)[C@@H]3O5)c1ccccc1`, the pKi on Mu-type opioid receptor was 7.09; in test [1], 8.36; in test [2], 7.09.

Regarding `Oc1ccc2c3c1O[C@@H]1c4[nH]c5cc(-c6ccccc6)ccc5c4C[C@@]4(O)[C@@H](C2)N(CC2CC2)CC[C@]314`, the pKi is 5.89 at Mu-type opioid receptor, 7.74 in test [1] and 6.20 in test [2].

For `CC1c2c([nH]c3ccccc23)[C@H]2Oc3c(O)ccc4c3[C@@]23CCN(CC2CC2)[C@H](C4)[C@H]13` (stereo partly specified), the figures for the pKi (at Mu-type opioid receptor; in test [1]; in test [2]) were 7.18, 8.64 and 7.44, respectively.

Turning to `Oc1ccc2c3c1O[C@@H]1c4[nH]c5cc(Oc6ccccc6)ccc5c4C[C@@]4(O)[C@@H](C2)N(CC2CC2)CC[C@]314`, the pKi at Mu-type opioid receptor is 6.63; in test [1], 8.19; in test [2], 6.63.

As to `O=C(Oc1cccc2[nH]c3c(c12)C[C@@]1(O)[C@H]2Cc4ccc(O)c5c4[C@@]1(CCN2CC1CC1)[C@@H]3O5)c1ccccc1`, the pKi is 6.44 on Mu-type opioid receptor, 7.83 in test [1] and 6.27 in test [2].

On to `Oc1ccc2c3c1O[C@@H]1c4[nH]c5c(Oc6ccccc6)cccc5c4C[C@@]4(O)[C@@H](C2)N(CC2CC2)CC[C@]314`, for which the negative-log Ki (pKi) at Mu-type opioid receptor was 7.47; in test [1], 9.15; in test [2] it was 7.47.

With `Oc1ccc2c3c1O[C@@H]1c4[nH]c5ccc(Oc6ccccc6)cc5c4C[C@@]4(O)[C@@H](C2)N(CC2CC2)CC[C@]314`, the pKi at Mu-type opioid receptor was 6.53; in test [1] it was 7.75; in test [2] it was 7.12.

`C=C(C)CN1CCC23c4c5ccc(OC)c4O[C@H]2c2oc4ccccc4c2C[C@@]3(O)C1C5` (stereo partly specified) showed a pKi in test [1] of 7.36.

On to `C=C(C)CN1CCC23c4c5ccc(OC)c4O[C@H]2c2[nH]ncc2C[C@@]3(O)C1C5` (stereo partly specified), for which the figures for the pKi in test [1] and in test [2] were 5.62 and 5.51, respectively.

In the case of `Oc1ccc2c3c1O[C@H]1c4[nH]c5ccccc5c4C[C@@]4(O)[C@@H](C2)N(CC2CC2)CC[C@]314` [NALTRINDOLE], the pKi in test [2] was 7.57.
